Drawing on PubChem BioAssay AID1972 (The Scripps Research Institute Molecular Screening Center, 2009), this text covers IC50 for one compound.

Molecules are shown by their SMILES.

For the assay, the system named is IEC-6 rat intestinal cells viability, luminescence. Description: PubChem AID 1972.

Take `COc1cc2c(c(OC)c1OC)-c1ccc(O)c(=O)cc1C(NC(C)=O)CC2` (stereo unspecified): the IC50 was 121 nM.

What is called IC50 is the concentration that gives 50% inhibition.
